Measured values from patent US20250059201A1, “CAMPTOTHECIN COMPOUND AND CONJUGATE THEREOF” (priority 2021, published 2025).
Where “and” joins values, the source holds several entries; their conditions need not be identical. Identical values can stand only once. Like-named read-outs stand apart in the source and are kept apart here. Values belong to the molecule of their own block, whether it stands above or below them.

Legend:
[1] = test system: NCI-N87 human gastric cancer cells; assay: Comparative study of the activity of camptothecins (CCK-8 cell killing); format: cell-based
Procedure: (§1) KB oral epithelial cancer cells (purchased from: ATCC) were cultured in DMEM medium supplemented with 10% FBS; NCI-N87 human gastric cancer cells (purchased from: ATCC) were cultured in RPMI1640 medium supplemented with 10% FBS; HT29 human colon cancer cells (purchased from: ATCC) were cultured in RPMI1640 medium supplemented with 10% FBS; and BxPC-3 human pancreatic adenocarcinoma cells (purchased from: ATCC) were cultured in RPMI1640 medium supplemented with 10% FBS.
(§2) Using corresponding media described above and in cell plates, the density of KB cells was adjusted to 2×10^4/mL; the density of NCI-N87 cells was adjusted to 5×10^4/mL; the density of HT29 cells was adjusted to 5×10^4/mL, and the cells were plated onto 96-well transparent flat bottom plates, at 100 µL/well, and cultured overnight; and the density of BxPC-3 cells was adjusted to 5×10^4/mL.
(§3) Samples to be detected were diluted to 20 μM with corresponding media, then 5-fold gradient dilution was performed, and 9 concentrations were obtained. A well having cells but with no any sample added was set as the well showing maximum cell growth; and a well having no cells was set as the well of medium background. The diluted samples were added into the cell plates, at 100 μL/well, which were then incubated in a C02 incubator for 96 hours. After the incubation, CCK-8 (purchased from: DOJINDO LABORATORIES) prepared beforehand was added into the plates, at 20 μL/well, and after further 3 hours incubation in the C02 incubator, […] were read on a microplate reader.
(§4) Data obtained was fitted to a four-parameter curve using software Prism7, and equation for calculating maximum killing is: maximum killing (%)=1−(OD450 value of the well showing maximum killing—OD450 value of the well of medium background)/(OD450 value of the well showing maximum cell growth—OD450 value of the cell of medium background)[…].

[2] = test system: BxPC-3 human pancreatic adenocarcinoma cells; assay: as above; format: cell-based; details: for Emax: read-out: Maximum Killing (%), BxPC-3, killing days 4 days
Procedure: as §1, §2, §3, §4

[3] = test system: HT29 human colon cancer cells; assay: as above; format: cell-based; details: HT29, killing days 4 days
Procedure: as §1, §2, §3, §4

[4] = test system: KB oral epithelial cancer cells; assay: as above; format: cell-based; details: killing days 4 days
Procedure: as §1, §2, §3, §4

Trop-2 on BxPC-3 cells [5] = biological target: T1, Trop-2 on BxPC-3 cells (human, UniProt P09758 27-323); assay: flow cytometry, fluorescently labeled drug on BxPC-3 cells, on ice 1 h (mean ± SD, n = 2)
T1 construct: whole, on cells; also called Trop-2-positive BxPC-3 tumor cells
T1 sequence (looked up): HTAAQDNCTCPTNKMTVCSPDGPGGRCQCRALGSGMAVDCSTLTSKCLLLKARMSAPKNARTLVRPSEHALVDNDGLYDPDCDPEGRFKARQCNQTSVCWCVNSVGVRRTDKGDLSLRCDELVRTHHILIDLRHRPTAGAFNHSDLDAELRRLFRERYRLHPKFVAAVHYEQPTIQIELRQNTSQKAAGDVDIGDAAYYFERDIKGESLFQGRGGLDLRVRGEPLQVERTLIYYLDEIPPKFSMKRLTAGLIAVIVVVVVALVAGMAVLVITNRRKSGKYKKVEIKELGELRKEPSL
Procedure: (§5) Different concentrations (1, 3, 10, 30, 100, 300, 1000, 3000, 10000, 30000, and 100000 ng/mL) of fluorescently labeled Trop2-ADC-14 and the mAb in Trop2-ADC-14 (i.e., antibody h23-12) were incubated with BxPC-3 cells (purchased from: ATCC) on ice for 1 hour in dark, and then the cells were centrifuged to remove supernatant, washed with PBS, re-suspended, and the fluorescence intensity of the drugs bound to the cells was measured with a flow cytometer (BD ACCURI C6 PLUS). The experiment was repeated once.

Trop-2 on BxPC-3 cells [6] = biological target: T1, Trop-2 on BxPC-3 cells; assay: flow cytometry, fluorescently labeled antibody on BxPC-3 cells, on ice 1 h (mean ± SD, n = 2)
Procedure: as §5

[7] = Homo sapiens, NCI-N87, 96 h, read-out: Maximum Killing (%), NCI-N87, killing days 4 days
[8] = Homo sapiens, BXPC-3, 96 h, BxPC-3, killing days 4 days

Molecule: CC[C@@]1(O)C(=O)OCc2c1cc1n(c2=O)Cc2c-1nc1ccc(N)c3c1c2C(C)(C)CC3 [Compound 1]
Emax [1, 7]: 92.1%

Molecule: CC[C@@]1(O)C(=O)OCc2c1cc1n(c2=O)Cc2c-1nc1ccc(N)c3c1c2C1CC1C3 (some centres unmarked) [Compound 7]
Emax ([2]; Homo sapiens, BXPC-3, 96 h): 94.4%
Emax [1, 7]: 87.9%

Molecule: CC[C@@]1(O)C(=O)OCc2c1cc1n(c2=O)Cc2c-1nc1ccc(N)c3c1c2CCS3 [Compound 12]
Emax ([2]; Homo sapiens, BXPC-3, 96 h): 98.5%
Emax [1, 7]: 94.9%

Molecule: CC[C@@]1(O)C(=O)OCc2c1cc1n(c2=O)Cc2c-1nc1ccc(N)c3c1c2C(F)(F)CS3 [Compound 13]
EC50 [2, 8]: 1.41 nM
Emax ([2]; Homo sapiens, BXPC-3, 96 h): 98.9%

Molecule: CC[C@@]1(O)C(=O)OCc2c1cc1n(c2=O)Cc2c-1nc1ccc(N)c3c1c2CC[S@+]3[O-] [Compound 14-P1]
Emax ([2]; Homo sapiens, BXPC-3, 96 h): 38.8%
Emax [1, 7]: 42.5%

Molecule: CC[C@@]1(O)C(=O)OCc2c1cc1n(c2=O)Cc2c-1nc1ccc(N)c3c1c2CC[S@@+]3[O-] [Compound 14-P2]
Emax ([2]; Homo sapiens, BXPC-3, 96 h): 43.3%
Emax [1, 7]: 68.4%

Molecule: CC[C@@]1(O)C(=O)OCc2c1cc1n(c2=O)Cc2c-1nc1ccc(N)c3c1c2CCO3 [Compound 14]
EC50 [2, 8]: 6.46 nM
Emax ([2]; Homo sapiens, BXPC-3, 96 h): 84.7%

Molecule: CC[C@@]1(O)C(=O)OCc2c1cc1n(c2=O)Cc2c-1nc1ccc(N)c3c1c2CCS3(=O)=O [Compound 15]
Emax ([2]; Homo sapiens, BXPC-3, 96 h): 87.9%
Emax [1, 7]: 83.6%

Molecule: CCC1(O)CC(=O)OCc2c1cc1n(c2=O)Cc2c-1nc1ccc(N)c3c1c2CCC3 (centres unmarked) [Compound 17]
EC50 ([1]; Homo sapiens, 96 h, NCI-N87, killing days 4 days, read-out: EC50): 7.43 nM
Emax ([1]; Homo sapiens, 96 h, NCI-N87, killing days 4 days, read-out: Maximum Killing (%)): 87.6%

Molecule: CC[C@@]1(O)C(=O)OCc2c1cc1n(c2=O)Cc2c-1nc1cc(F)c(N)c3c1c2CCO3 [Compound 18]
Emax ([2]; Homo sapiens, BXPC-3, 96 h): 99.6%
Emax [1, 7]: 92.9%

Molecule: CC[C@@]1(O)C(=O)OCc2c1cc1n(c2=O)Cc2c-1nc1cc(F)c(N)c3c1c2C(F)(F)CO3 [Compound 19]
Emax ([2]; Homo sapiens, BXPC-3, 96 h): 97.4%

Molecule: CC[C@@]1(O)C(=O)OCc2c1cc1n(c2=O)Cc2c-1nc1cc(F)c(N)c3c1c2C(F)(F)CC3 [Compound 20]
EC50 [2, 8]: 0.683 nM
Emax ([2]; Homo sapiens, BXPC-3, 96 h): 99.2%
EC50 ([1]; Homo sapiens, NCI-N87, 96 h, NCI-N87, killing days 4 days): 0.059 nM
Emax [1, 7]: 93.2%

Molecule: CC[C@@]1(O)C(=O)OCc2c1cc1n(c2=O)Cc2c-1nc1cc(F)c(N)c3c1c2CCS3 [Compound 26]
Emax ([2]; Homo sapiens, BXPC-3, 96 h): 99.1%
Emax [1, 7]: 93.4%

Molecule: CC[C@@]1(O)C(=O)OCc2c1cc1n(c2=O)Cc2c-1nc1cc(F)c(N)c3c1c2C(F)(F)CS3 [Compound 27]
Emax ([2]; Homo sapiens, BXPC-3, 96 h): 97.7%
Emax [1, 7]: 90.6%

Molecule: CC[C@@]1(O)C(=O)OCc2c1cc1n(c2=O)Cc2c-1nc1ccc(N)c3c1c2C(F)(F)CO3 [Compound 31]
Emax ([2]; Homo sapiens, BXPC-3, 96 h): 93.7%
Emax [1, 7]: 90.7%

Molecule: CC[C@@]1(O)C(=O)OCc2c1cc1n(c2=O)Cc2c-1nc1cc(F)c(C)c3c1c2[C@@H](NC(=O)CO)CC3 [Dxd]
EC50 [3]: 127 nM and 133 nM
Maximum Killing (%) [3]: 87.4% and 85.4%
Maximum Killing (%) ([2]; BxPC-3, killing days 4 days): 91.8%
EC50 ([2]; BxPC-3, killing days 4 days, read-out: EC50): 24.3 nM
Maximum Killing (%) [4]: 94.7% and 94.9%
Maximum Killing (%) ([1]; NCI-N87, killing days 4 days): 92.8% and 92.7% and 94.6%

Molecule: CC[C@@]1(O)C(=O)OCc2c1cc1n(c2=O)Cc2c-1nc1ccc(N)c3c1c2CCC3 [MWC-1, reference compound]
EC50 [3]: 8.68 nM
EC50 ([3]; Homo sapiens, HT-29, 96 h): 9.89 nM
EC50 ([4]; 96 h): 14.8 nM
EC50 ([1]; Homo sapiens, NCI-N87, 96 h, NCI-N87, killing days 4 days, read-out: EC50): 4.44 nM
Emax [1, 7]: 93.4%
EC50 ([1]; NCI-N87, killing days 4 days, read-out: EC50): 5.22 nM

EC50 (Trop-2 on BxPC-3 cells [5]): 1.3 µg/mL
B1: Trop2-ADC-14 (antibody, human IgG1, kappa, V domains shown)
VH: QVQLVQSGAEVKKPGASVKVSCKASGYTFTSYWMHWVRQAPGQGLEWMGEITPSDNYGSYNQKFKGRVTITRDTSTSTAYMELSSLRSEDTAVYYCARGHGNYVSFDYWGQGTLVTVSS
VL: DIQMTQSPSSLSASVGDRVTITCRASQDISNYLNWYQQKPGKAPKLLIYYTSRLESGVPSRFSGSGSGTDFTLTISSLQPEDFATYFCQQGYTLPPYTFGQGTKLEIKR
modifications: drug-containing linker MWF-L6 (Compound 3 payload) bridged on cysteines of the reduced disulfide bonds, DAR 4.1; positions not given
notes: Antibody-drug conjugate: antibody h23-12 with MWF-L6, site-specific bridged conjugation, DAR 4.1; also called ADC 1o; h23-12 conjugated with drug-containing linker MWF-L6

EC50 (Trop-2 on BxPC-3 cells [6]): 1.14 µg/mL
B2: Antibody h23-12 (antibody, human IgG1, kappa, V domains shown)
VH: QVQLVQSGAEVKKPGASVKVSCKASGYTFTSYWMHWVRQAPGQGLEWMGEITPSDNYGSYNQKFKGRVTITRDTSTSTAYMELSSLRSEDTAVYYCARGHGNYVSFDYWGQGTLVTVSS
VL: DIQMTQSPSSLSASVGDRVTITCRASQDISNYLNWYQQKPGKAPKLLIYYTSRLESGVPSRFSGSGSGTDFTLTISSLQPEDFATYFCQQGYTLPPYTFGQGTKLEIKR
notes: Monoclonal antibody; also called the mAb in Trop2-ADC-14; anti-Trop-2 antibody h23-12
